# Laboratory results published in ChEMBL document CHEMBL3885861, “Open TG-GATES”.
# Species: Rattus norvegicus
# Assay: Open TG-GATES - Regimen: Single
# Assay type: toxicity, organism-based, Sprague-Dawley
# Design: regimen Single, gender Male, age 6 weeks
# Conditions: in vivo, po, 0 mg/kg, route gavage, dose level Control; for APTT / Bas / Eos / Fbg / Hb / Ht / Lym / MCH / MCHC / MCV / Mono / Neu / PT / Plat / RBC / Ret / WBC: tissue Blood; for KIDNEY_L / KIDNEY_R / KIDNEY_TOTAL: tissue Kidney; for LIVER: tissue Liver; for A/G / ALP / ALT / AST / BUN / CRE / Ca / Cl / DBIL / GLC / IP / K / LDH / Na / PL / RALB / TBIL / TC / TG / TP / gamma-GTP: tissue Plasma
compound,measurement,setting,value
CC(C)(S)[C@@H](N)C(=O)O [PENICILLAMINE],TERMINAL_BW,3 h,202 g
same,APTT,3 h,15 s
same,Bas,3 h,0%
same,Eos,3 h,1%
same,Fbg,3 h,302 mg/dL
same,Hb,3 h,13.8 g/dL
same,Ht,3 h,42.5%
same,Lym,3 h,79.4%
same,MCH,3 h,21.6 pg
same,MCHC,3 h,32.5%
same,MCV,3 h,66.4 fL
same,Mono,3 h,2.8%
same,Neu,3 h,15.8%
same,PT,3 h,14.4 s
same,Plat,3 h,123.9 x10_4/uL
same,RBC,3 h,639.6 x10_4/ul
same,Ret,3 h,9.1%
same,WBC,3 h,90 x10_2/uL
same,KIDNEY_L,3 h,0.9 g
same,KIDNEY_R,3 h,0.9 g
same,KIDNEY_TOTAL,3 h,1.7 g
same,LIVER,3 h,9 g
same,A/G,3 h,0.9
same,ALP,3 h,1505 IU/L
same,ALT,3 h,42.2 IU/L
same,AST,3 h,75.2 IU/L
same,BUN,3 h,10 mg/dL
same,CRE,3 h,0.2 mg/dL
same,Ca,3 h,11.1 mg/dL
same,Cl,3 h,106.2 meq/L
same,DBIL,3 h,0.014 mg/dL
same,GLC,3 h,178.8 mg/dL
same,IP,3 h,8.4 mg/dL
same,K,3 h,4.4 meq/L
same,LDH,3 h,74.6 IU/L
same,Na,3 h,141.8 meq/L
same,PL,3 h,137.4 mg/dL
same,RALB,3 h,2.6 g/dL
same,TBIL,3 h,0.032 mg/dL
same,TC,3 h,71.4 mg/dL
same,TG,3 h,72.6 mg/dL
same,TP,3 h,5.3 g/dL
same,gamma-GTP,3 h,1.2 IU/L
same,TERMINAL_BW,6 h,201.2 g
same,APTT,6 h,16.2 s
same,Bas,6 h,0%
same,Eos,6 h,1%
same,Fbg,6 h,301.2 mg/dL
same,Hb,6 h,13.3 g/dL
same,Ht,6 h,41.1%
same,Lym,6 h,79.2%
same,MCH,6 h,20.6 pg
same,MCHC,6 h,32.4%
same,MCV,6 h,63.7 fL
same,Mono,6 h,2.6%
same,Neu,6 h,16.2%
same,PT,6 h,14.3 s
same,Plat,6 h,130.7 x10_4/uL
same,RBC,6 h,646.2 x10_4/ul
same,Ret,6 h,8.8%
same,WBC,6 h,87.2 x10_2/uL
same,KIDNEY_L,6 h,0.9 g
same,KIDNEY_R,6 h,0.9 g
same,KIDNEY_TOTAL,6 h,1.7 g
same,LIVER,6 h,8.5 g
same,A/G,6 h,0.9
same,ALP,6 h,1217 IU/L
same,ALT,6 h,34.4 IU/L
same,AST,6 h,70.6 IU/L
same,BUN,6 h,9.6 mg/dL
same,CRE,6 h,0.2 mg/dL
same,Ca,6 h,11 mg/dL
same,Cl,6 h,106 meq/L
same,DBIL,6 h,0.008 mg/dL
same,GLC,6 h,175.8 mg/dL
same,IP,6 h,8.9 mg/dL
same,K,6 h,4.3 meq/L
same,LDH,6 h,76 IU/L
same,Na,6 h,142.8 meq/L
same,PL,6 h,135 mg/dL
same,RALB,6 h,2.5 g/dL
same,TBIL,6 h,0.038 mg/dL
same,TC,6 h,75.8 mg/dL
same,TG,6 h,52.4 mg/dL
same,TP,6 h,5.3 g/dL
same,gamma-GTP,6 h,1 IU/L
same,TERMINAL_BW,9 h,199.9 g
same,APTT,9 h,16.9 s
same,Bas,9 h,0%
same,Eos,9 h,0.6%
same,Fbg,9 h,300 mg/dL
same,Hb,9 h,13.5 g/dL
same,Ht,9 h,41.9%
same,Lym,9 h,80%
same,MCH,9 h,21.1 pg
same,MCHC,9 h,32.3%
same,MCV,9 h,65.3 fL
same,Mono,9 h,2.6%
same,Neu,9 h,16.2%
same,PT,9 h,14.5 s
same,Plat,9 h,126.8 x10_4/uL
same,RBC,9 h,641.4 x10_4/ul
same,Ret,9 h,9.1%
same,WBC,9 h,92.7 x10_2/uL
same,KIDNEY_L,9 h,0.9 g
same,KIDNEY_R,9 h,0.9 g
same,KIDNEY_TOTAL,9 h,1.8 g
same,LIVER,9 h,8.1 g
same,A/G,9 h,0.9
same,ALP,9 h,1372.8 IU/L
same,ALT,9 h,40.6 IU/L
same,AST,9 h,72 IU/L
same,BUN,9 h,8.6 mg/dL
same,CRE,9 h,0.1 mg/dL
same,Ca,9 h,10.7 mg/dL
same,Cl,9 h,106.4 meq/L
same,DBIL,9 h,0.006 mg/dL
same,GLC,9 h,187.4 mg/dL
same,IP,9 h,9.8 mg/dL
same,K,9 h,4.2 meq/L
same,LDH,9 h,68.4 IU/L
same,Na,9 h,143.6 meq/L
same,PL,9 h,144 mg/dL
same,RALB,9 h,2.6 g/dL
same,TBIL,9 h,0.034 mg/dL
same,TC,9 h,82 mg/dL
same,TG,9 h,55 mg/dL
same,TP,9 h,5.4 g/dL
same,gamma-GTP,9 h,1.2 IU/L
same,TERMINAL_BW,24 h,214.6 g
same,APTT,24 h,16.2 s
same,Bas,24 h,0%
same,Eos,24 h,1%
same,Fbg,24 h,317.2 mg/dL
same,Hb,24 h,13.3 g/dL
same,Ht,24 h,40.9%
same,Lym,24 h,76.8%
same,MCH,24 h,21.3 pg
same,MCHC,24 h,32.6%
same,MCV,24 h,65.2 fL
same,Mono,24 h,3.6%
same,Neu,24 h,17.6%
same,PT,24 h,13.9 s
same,Plat,24 h,125.8 x10_4/uL
same,RBC,24 h,626.4 x10_4/ul
same,Ret,24 h,8.2%
same,WBC,24 h,92.6 x10_2/uL
same,KIDNEY_L,24 h,0.9 g
same,KIDNEY_R,24 h,0.9 g
same,KIDNEY_TOTAL,24 h,1.8 g
same,LIVER,24 h,9.5 g
same,A/G,24 h,0.9
same,ALP,24 h,1418.8 IU/L
same,ALT,24 h,43 IU/L
same,AST,24 h,74.6 IU/L
same,BUN,24 h,13.2 mg/dL
same,CRE,24 h,0.2 mg/dL
same,Ca,24 h,11.1 mg/dL
same,Cl,24 h,105.8 meq/L
same,DBIL,24 h,0.01 mg/dL
same,GLC,24 h,174.8 mg/dL
same,IP,24 h,7.2 mg/dL
same,K,24 h,4 meq/L
same,LDH,24 h,80 IU/L
same,Na,24 h,143.4 meq/L
same,PL,24 h,160.4 mg/dL
same,RALB,24 h,2.6 g/dL
same,TBIL,24 h,0.026 mg/dL
same,TC,24 h,83 mg/dL
same,TG,24 h,115.6 mg/dL
same,TP,24 h,5.5 g/dL
same,gamma-GTP,24 h,1 IU/L
